Results published in US20260250325A1, “Antiviral Polypeptide Membrane Fusion Inhibitor, and Preparation Method and Application Thereof” (priority 2025, published 2026).
Where a SMILES comes first, the peptide text is derived from it. The star is where a group is joined. Succinyl(4-O-cholesteryl) = CC(C)CCC[C@@H](C)[C@H]1CC[C@H]2[C@@H]3CC=C4C[C@@H](OC(=O)CCC(=O)*)CC[C@]4(C)[C@H]3CC[C@]12C

Legend:
[1] = tested on: hPIV3 C243 virus strain; type: cell-based, hPIV; conditions: LLC-MK2 cells, hPIV3 C243, plaque reduction; read-out: EC50 against hPIV3 virus
Experimental: Rhesus monkey kidney cells (LLC-MK2) were sourced from the ATCC, with a catalog number CCL-7.1. The cells were cultured in a DMEM culture solution in which 10% fetal bovine serum, 1% non-essential amino acids, 1% sodium pyruvate, 1% L-glutamine, 100 U/ml penicillin, and 100 μg/ml streptomycin were added.
An HPIV-3 plaque experiment culture medium consisted of a DMEM culture solution added with 2% fetal bovine serum, 1% non-essential amino acids, 1% sodium pyruvate, 1% L-glutamine, 100 U/ml penicillin, and 100 μg/ml streptomycin.
The hPIV Type 3 (hPIV3 C243) was sourced from the ATCC, with a catalog number VR-93.
This study used the plaque reduction experiment to detect the in-vitro activity of the test sample against the hPIV3 C243 virus strain, and Human Anti-HPIV3 Monoclonal Antibody, clone PIA174 was an experimental system control. The test sample and a system experimental antibody were tested at 8 concentrations in duplicated wells.
The LLC-MK2 cells were digested with trypsin and then diluted to a concentration of 400,000 cells per milliliter by using a cell culture solution containing 2% serum. The diluted cells were added to a 96-well cell test board, with 100 μL per well, corresponding to 40,000 cells per well. The cells were cultured overnight in a 37° C. incubator with 5% CO2.
On the next day, the sample diluted at a fold ratio and an equal volume of virus (approximately 200 PFU per well) were well mixed and incubated at 37° C. in 5% CO2 for 1 hour. Then, the culture solution in the 96-well cell test board was discarded, the sample virus mixed solution (100 μL) was added to the 96-well cell culture plate, and incubated at 37° C. in 5% CO2 for 2 hours. After 2 h, the sample virus mixed solution was discarded, 200 μL of an experiment culture medium containing the test sample with a corresponding concentration was added, and the culture solution contained 0.8% CMC. A final concentration of DMSO in the culture solution was 0.5%. A control antibody was directly added to the experiment culture solution containing 0.8% CMC. A cell control (cells, without compound treatment or viral infection) and a viral control (cell infection virus, without compound treatment) were set. The cells were cultured for 1 day in the 37° C. incubator with 5% CO2.
The cells were fixed with 4% paraformaldehyde, and then permeabilization was performed with 0.5% Triton X-100. After the plate was washed with DPBS, a hPIV specific antibody (1:2000 dilution) was added and incubated at 37° C. for 1.5 h. Then, a secondary antibody (1:500 dilution) was added and incubated at 37° C. for 1 hour. The secondary antibody was discarded, a TrueBlue solution was added, dyeing was performed for approximately 10 minutes; and the plate was washed with running water and then air-dried, and the number of spots in each well was counted by using a microplate imaging counter.
Raw data was used for calculating the antiviral activity of the samples, and a calculation formula was shown as follows.
% inhibition rate=100−(sample value-cell control average value)/(virus control average value-cell control average value)×100
Non-linear fitting analysis was performed on the inhibition rate of the sample by using GraphPad Prism (version 10), so as to calculate an EC50 value for the sample. A fitting formula was log (inhibitor) vs. response-Variable slope (four parameters).

[2] = target: T1, hMPV-N46 (127-172) (Human metapneumovirus, UniProt Q6WB98); experiment: SPR affinity to hMPV-N46 coupled on CM5 chip; type: binding
T1 construct: hMPV-N46 (127-172)
T1 sequence (Q6WB98 127-172): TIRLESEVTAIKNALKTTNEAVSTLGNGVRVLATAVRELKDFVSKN
Experimental: (§1) hMPV and hPIV were two viruses having a typical Class I fusion protein-F protein. An F protein precursor F0 was cracked into F1 and F2 subunits. […] When the compound flowed through a chip surface, changes in an SPR signal were monitored in real time, binding and dissociation processes were recorded, and a binding rate constant (ka) and a dissociation rate constant (kd) were further obtained through kinetic analysis, thereby calculating an equilibrium dissociation constant (KD=kd/ka).
(§2) A CM5 chip with a catalog number 29149603, an amino coupling reagent kit with a catalog number BR100050, HBS-EP+Buffer (10×), sodium acetate (pH 4.0), and a 10 mM glycine-HCl buffer (pH 2.0) were all purchased from GE Health.
(§3) CM5 chip coupling: Channels 2 and 4 of the CM5 chip were activated for 7 min by using a freshly-prepared mixture of 50 mM Hydroxy succinimide (NHS) and 200 mM 1-(3-Dimethylaminopropyl)-3-ethylcarbodiimide (EDC) according to 1:1; and then, hMPV-N46 or hPIV-N51 was diluted and dissolved with sodium acetate with 4.0 pH to a concentration of 30 μM, with a flow rate of 10 μl/min and time of 600 s. An experimental buffer was HBS-EP+buffer (1×). Finally, the chip was blocked with 1 M ethanolamine. The instrument was set to a temperature of 25° C.
(§4) Affinity detection: the buffer used in the experiment was HBS-EP+buffer (1×), and a multi-cycle dynamic mode was used. Channels 1 and 3 of the chip served as blank reference channels; polypeptides to be detected sequentially flowed through Channels 2 and 4 at concentrations of 0 μM, 0.04 µM, 0.12 µM, 0.37 μM, 1.11 µM, 3.33 µM, 10 µM, and 30 μM; the flow rate was 30 μl/min, binding was performed for 180 s, and dissociation was performed for 120 s. Finally, the chip was regenerated by injecting 10 mM glycine (pH 2.0). The instrument was set to a temperature of 25° C.

[3] = target: T2, hPIV-N51 (139-189) (Human parainfluenza 3 virus, UniProt P06828); experiment: SPR affinity to hPIV-N51 coupled on CM5 chip; type: binding
T2 construct: hPIV-N51 (139-189)
T2 sequence (P06828 139-189): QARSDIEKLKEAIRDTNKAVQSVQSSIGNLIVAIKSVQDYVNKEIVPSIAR
Experimental: as §1, §2, §3, §4

Structure (SMILES)	EC50 [1] [µM]	Kd [2] [µM]	Kd [3] [µM]
CC[C@H](C)[C@H](NC(=O)[C@H](CCCCN)NC(=O)[C@H](CCCCN)NC(=O)[C@H](CC(C)C)NC(=O)[C@H](CO)NC(=O)[C@H](CCC(=O)O)NC(=O)[C@H](CCC(=O)O)NC(=O)[C@@H](NC(=O)[C@H](CCCCN)NC(=O)[C@H](CCCCN)NC(=O)[C@H](CC(N)=O)NC(=O)[C@@H](NC(=O)[C@H](CCC(=O)O)NC(=O)[C@H](CCC(=O)O)NC(=O)[C@@H](NC(=O)[C@H](CCCCN)NC(=O)[C@H](CCCCN)NC(=O)[C@H](CC(=O)O)NC(=O)[C@H](Cc1ccccc1)NC(=O)[C@H](CCC(=O)O)NC(=O)[C@H](CC(=O)O)NC(=O)[C@H](CO)NC(C)=O)[C@@H](C)CC)C(C)C)[C@@H](C)CC)C(=O)N[C@@H](CCC(=O)O)C(=O)N[C@@H](CCC(=O)O)C(=O)N[C@@H](CO)C(=O)N[C@@H](CC(=O)O)C(=O)N[C@@H](CCCCN)C(=O)N[C@@H](CCCCN)C(=O)N[C@@H](CC(C)C)C(=O)NCC(=O)N[C@@H](CO)C(=O)NCC(=O)N[C@@H](CO)C(=O)NCC(=O)N[C@@H](CCCCNC(=O)CCC(=O)O[C@H]1CC[C@@]2(C)C(=CC[C@H]3[C@@H]4CC[C@H]([C@H](C)CCCC(C)C)[C@@]4(C)CC[C@@H]32)C1)C(N)=O [Compound 20] (Ac-SDEFDKKIEEVNKKIEESLKKIEESDKKLGSGSGK(Succinyl(4-O-cholesteryl))-NH2)	0.0595	19.1	6.8
CC[C@H](C)[C@H](NC(=O)[C@H](CCCCN)NC(=O)[C@H](CCC(=O)O)NC(=O)[C@H](CC(C)C)NC(=O)[C@H](CO)NC(=O)[C@H](CCC(N)=O)NC(=O)[C@H](CC(N)=O)NC(=O)[C@@H](NC(=O)[C@H](CCCCN)NC(=O)[C@H](CCC(=O)O)NC(=O)[C@H](CC(N)=O)NC(=O)[C@@H](NC(=O)[C@H](CCC(N)=O)NC(=O)[C@H](CO)NC(=O)[C@H](C)NC(=O)[C@H](CC(=O)O)NC(=O)[C@H](Cc1ccccc1)NC(=O)[C@@H](NC(=O)[C@H](CC(C)C)NC(=O)[C@H](CCC(=O)O)NC(=O)[C@H](CC(=O)O)NC(=O)[C@H](Cc1ccc(O)cc1)NC(C)=O)C(C)C)C(C)C)[C@@H](C)CC)C(=O)N[C@@H](CCCNC(=N)N)C(=O)N[C@@H](CCCCN)C(=O)N[C@@H](CO)C(=O)N[C@@H](CC(=O)O)C(=O)N[C@@H](CCC(=O)O)C(=O)N[C@@H](CC(C)C)C(=O)N[C@@H](CC(C)C)C(=O)N[C@@H](Cc1c[nH]cn1)C(=O)N[C@@H](CC(N)=O)C(=O)N[C@H](C(=O)NCC(=O)N[C@@H](CO)C(=O)NCC(=O)N[C@@H](CO)C(=O)NCC(=O)N[C@@H](CCCCNC(=O)CCC(=O)O[C@H]1CC[C@@]2(C)C(=CC[C@H]3[C@@H]4CC[C@H]([C@H](C)CCCC(C)C)[C@@]4(C)CC[C@@H]32)C1)C(N)=O)C(C)C [Compound 25] (Ac-YDELVFDASQVNEKINQSLEKIRKSDELLHNVGSGSGK(Succinyl(4-O-cholesteryl))-NH2)	0.0294	21.1	74.6
